This note sets out measurements from patent US6518399B1, “Receptor” (Smithkline Beecham Corporation, priority 1998, dated 2003).

First the molecules themselves.
B1: GABAB-R2 C-terminal domain, GAL4 fusion (receptor, not shown: small tags and cut ends)
chain: VPKLITLRTNPDAATQNRRFQFTQNQKKEDSKTSTSVTSVNQASTSRLEGLQSENHRLRMKITELDKDLEEVTMQLQDTPEKTTYIKQNHYQELNDILNLGNFTESTDGGKAILKNHLDQNPQLQWNTTEPSRTCKDPIEDINSPEHIQRRLSLQLPILHHAYLPSIGGVDASCVSPCVSPTASPRHRHVPPSFRVMVSGL
notes: Only the intracellular C-terminal domain of GABAB-R2 was used; also called GABAB-R2 C-terminus; YTH HITS

The test system of series [1] is GABAB-R1a, GABAB-R1b or GABAB-R2 receptors expressed alone. It is filed as cell-based, human. The note with it: for Functional response, CFTR or GIRK1/4 current: GABAB-R1a, GABAB-R1b or GABAB-R2 expressed singly with CFTR or GIRK1/4. On the procedure:
Adult female Xenopus laevis (Blades Biologicals) were anaesthetised using 0.2% tricaine (3-aminobenzoic acid ethyl ester), killed and the ovaries rapidly removed. […] Single stage V and VI oocytes were transferred to ND96 solution (96 mM NaCl, 2 mM KCl, 1 mM MgCl2, 1.8 mM CaCl2, 5 mM HEPES; pH 7.5 at 25° C.) which contained 50 μg ml^−1 gentamycin and stored at 18° C.
GABAB-R1a, GABAB-R1b (both in pcDNA3.1rev, Invitrogen), GABAB-R2, GIRK1, GIRK4 (in pcDNA3) and cystic fibrosis transmembrane regulator (CFTR; in pBluescript, Stratagene) were linearised and transcribed to RNA using T7 or T3 polymerase (Promega Wizard kit). m′G(5′)pp(5′)GTP capped cRNA was injected into oocytes (20-50 nl of 1 μgμl^−1 RNA per oocyte) and whole-cell currents were recorded using two-microelectrode voltage-clamp (Geneclamp amplifier, Axon instruments Inc.) 3 to 7 days post-RNA injection. […] In all experiments oocytes were voltage-clamped at a holding potential of −60 mV in ND96 solution (superfused at 2 ml per min.) and agonists were applied by addition to this extracellular solution. In GIRK experiments the extracellular solution was changed to a high potassium solution prior to agonist application, to facilitate the recording of inward potassium currents. Current-voltage curves were constructed by applying 200 ms voltage-clamp pulses from the holding potential of […] to test potentials between −100 mV and +50 mV.

The target of the next series is HA-GABAB-R1b (Homo sapiens, UniProt Q9UBS5). As to the kind of experiment: [3H]-CGP54626 binding, HEK293T membranes expressing HA-GABAB-R1b alone. The note with it: HA-GABAB-R1b expressed alone.
Sequence of HA-GABAB-R1b (Q9UBS5 30-844 isoform Q9UBS5-2 limits assumed): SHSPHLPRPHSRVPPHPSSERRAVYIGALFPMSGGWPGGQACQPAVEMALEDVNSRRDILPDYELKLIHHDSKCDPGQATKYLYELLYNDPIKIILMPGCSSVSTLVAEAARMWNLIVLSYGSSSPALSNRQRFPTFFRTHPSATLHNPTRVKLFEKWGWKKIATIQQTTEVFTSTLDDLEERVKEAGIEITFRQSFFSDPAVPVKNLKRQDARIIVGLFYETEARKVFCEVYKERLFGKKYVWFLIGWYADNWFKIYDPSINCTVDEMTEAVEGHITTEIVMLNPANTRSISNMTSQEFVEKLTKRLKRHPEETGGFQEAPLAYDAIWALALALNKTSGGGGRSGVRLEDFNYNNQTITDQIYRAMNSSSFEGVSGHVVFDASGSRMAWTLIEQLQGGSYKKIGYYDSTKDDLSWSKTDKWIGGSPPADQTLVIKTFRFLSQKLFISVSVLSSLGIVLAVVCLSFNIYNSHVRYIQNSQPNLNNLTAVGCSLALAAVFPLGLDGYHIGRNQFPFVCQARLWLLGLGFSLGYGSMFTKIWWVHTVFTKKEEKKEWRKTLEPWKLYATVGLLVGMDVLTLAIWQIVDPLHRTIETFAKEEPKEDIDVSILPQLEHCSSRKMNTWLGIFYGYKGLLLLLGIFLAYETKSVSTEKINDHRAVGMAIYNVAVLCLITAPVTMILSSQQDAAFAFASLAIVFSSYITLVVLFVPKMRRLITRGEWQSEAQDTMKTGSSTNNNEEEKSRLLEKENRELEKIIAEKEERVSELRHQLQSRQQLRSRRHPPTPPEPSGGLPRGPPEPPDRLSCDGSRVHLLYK
For another series, the target named is T1, HA-GABAB-R2 (Homo sapiens, UniProt O75899).
T1 construct: heterodimerisation between full-length expressed GABAB-R1 and GABAB-R2 in mammalian cells; expressed in transfected cells; host or cells: HEK293T
T1 sequence (O75899 42-941): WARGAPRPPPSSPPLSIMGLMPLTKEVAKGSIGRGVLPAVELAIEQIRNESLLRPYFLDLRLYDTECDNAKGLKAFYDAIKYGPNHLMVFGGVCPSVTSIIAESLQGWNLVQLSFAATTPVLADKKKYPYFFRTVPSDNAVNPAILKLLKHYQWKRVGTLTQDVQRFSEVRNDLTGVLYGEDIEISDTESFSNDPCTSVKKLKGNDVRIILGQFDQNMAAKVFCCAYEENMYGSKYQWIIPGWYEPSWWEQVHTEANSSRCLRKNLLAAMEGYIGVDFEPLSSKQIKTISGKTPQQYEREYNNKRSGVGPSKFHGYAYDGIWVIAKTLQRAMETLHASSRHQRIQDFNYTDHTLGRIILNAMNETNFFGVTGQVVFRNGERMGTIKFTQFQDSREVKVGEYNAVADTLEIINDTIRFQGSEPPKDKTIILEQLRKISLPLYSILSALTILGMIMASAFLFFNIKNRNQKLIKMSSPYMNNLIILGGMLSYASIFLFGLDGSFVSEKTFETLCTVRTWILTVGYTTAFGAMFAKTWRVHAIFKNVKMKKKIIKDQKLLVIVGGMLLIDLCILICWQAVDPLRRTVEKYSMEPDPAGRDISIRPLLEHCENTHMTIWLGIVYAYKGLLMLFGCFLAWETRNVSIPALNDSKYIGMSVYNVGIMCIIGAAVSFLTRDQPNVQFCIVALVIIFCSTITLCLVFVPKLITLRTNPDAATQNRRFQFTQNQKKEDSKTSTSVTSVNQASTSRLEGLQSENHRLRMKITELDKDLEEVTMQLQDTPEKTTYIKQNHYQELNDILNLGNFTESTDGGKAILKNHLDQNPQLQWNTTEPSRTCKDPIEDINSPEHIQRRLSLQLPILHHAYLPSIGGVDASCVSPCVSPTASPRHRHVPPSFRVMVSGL
As to the kind of experiment: [3H]-CGP54626 binding, HEK293T cells transfected with HA-GABAB-R2 alone. As to conditions: HA-GABAB-R2 alone (data not shown). From the text: […]. […] […]

Series [2] concerns the molecule itself. In words: yeast two hybrid, GAL4BD and GAL4AD fusions of the C-termini (FIG. 5).
Series [3] concerns the molecule itself. As to the kind of experiment: yeast two hybrid, GAL4BD and GAL4AD fusions of the C-termini (FIG. 5); the library screen also did not retrieve the GABAB-R1 C-terminal domain.
In series [4] the target is B1. As to the kind of experiment: yeast two hybrid, direct test of the C-termini (β-galactosidase, FIG. 5); GABAB-R2 C-terminal domain also recovered 33 times in the library screen with the GABAB-R1 bait.

Experimental for HA-GABAB-R1b: Competition binding assays were performed in 50 mM Tris HCl buffer (pH7.4) containing 40 μM isoguvacine (Tocris Cookson) to block rat brain GABAA binding sites. P2 membrane preparations were made from HEK293T cells transfected using conditions described above. […] Assay conditions were 0.4-0.6 nM [^3H]-CGP54626, incubated with 50 μg/tube crude rat brain ‘mitochondrial’ fractions or 25 μg/tube HEK293T P2 membranes at room temperature for 20 minutes.

Turning to `NCCCC(=O)O` [GABA, γ-amino-butyric acid], the “Functional response, GIRK1/4 current” value in series [1] (GABAB-R1a and GABAB-R1b expressed alone (data not shown)) is given as “gave no response to GABA”. Moreover, the “Functional response, CFTR or GIRK1/4 current” value in series [1] is given as “No functional responses”. For `NCC(CC(=O)O)c1ccc(Cl)cc1` (centres unmarked) [Baclofen], the “Functional response, CFTR or GIRK1/4 current” value in series [1] is “No functional responses”.

Turning to `C[C@H](NC[C@H](O)CP(=O)(O)CC1CCCCC1)c1ccc(Cl)c(Cl)c1` [[3H]-CGP54626], the “Specific binding of radioligand” value on HA-GABAB-R1b was “high levels of specific binding”; at HA-GABAB-R2, “unable to detect any [3H]-CGP54626 specific binding”. Take B1: in series [2], the binding result is on record as “no binding”.

B2: GABAB-R1 C-terminal domain (C-terminal 108 amino acids of GABAB-R1), GAL4 fusion (receptor, not shown: small tags and cut ends)
chain: VPKMRRLITRGEWQSEAQDTMKTGSSTNNNEEEKSRLLEKENRELEKIIAEKEERVSELRHQLQSRQQLRSRRHPPTPPEPSGGLPRGPPEPPDRLSCDGSRVHLLYK
notes: Used as GAL4BD fusion in the library screen and as both GAL4BD and GAL4AD fusions in the direct test (all combinations); also called GABAB-R1 C-terminus; GAL4BD-GABAB-R1 C-terminus
Regarding B2, the binding result in series [3] is given as “no binding”; in series [4] it was “binds”.
